Test results: patent US6479435B1, “Diaryl ethers and processes for their preparation and herbicidal and desiccant compositions containing them” (ISK Americas Incorporated, priority 1997, dated 2002)

Key:
Format in all cases: in vivo
[1] = system: upland rice (Oryza sp., var.Tebonnet, RICE); test: Post-emerge greenhouse test, crop damage rating; settings: 14 days after application; for crop damage rating RICE: scale 0-100
In short: (§1)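 Plants at the 2-3 leaf stage, sown 8-21 days earlier, were track-sprayed post-emergence with compound in acetone plus 0.25% v/v non-ionic surfactant at 63-1000 g ai/ha (187 l/ha). Damage was rated at 14 days on a 0-100 scale (0 none, 100 all plants dead), for both crop injury and weed control.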

[2] = system: field corn (Zea mays L., var. Dekalb 535, CORN); test: Post-emerge greenhouse test, crop damage rating; settings: 14 days after application; for crop damage rating CORN: scale 0-100
In short: as §1

[3] = system: common ragweed (Ambrosia artemisiifolia L., AMBEL); test: Post-emerge greenhouse herbicide test, phytotoxicity rating; settings: 14 days after application; for phytotoxicity rating AMBEL: scale 0-100
In short: as §1

[4] = system: soybean (Glycine max L., var. Pella 86, SOY); test: Post-emerge greenhouse test, crop damage rating; set-up: key to crop damage rating SOY: 0-100 scale: 0 = no damage, 100 = complete death of all plants; settings: 14 days after application; for crop damage rating SOY: scale 0-100
In short: as §1

[5] = system: upland rice (Oryza sp., var.Tebonnet, RICE); test: Pre-emerge greenhouse test, crop damage rating; settings: 14 days after application, rating scale 0-100
In short: (§2)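 Seeds sown in sandy loam one day before track-sprayer application of acetone solutions at 125–1000 g ai/ha (187 l/ha), then surface-watered to incorporate and bottom-watered. Injury scored visually at 14 days on a 0–100 scale (0 no damage, 100 complete death).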

[6] = system: field corn (Zea mays L., var. Dekalb 535, CORN); test: Pre-emerge greenhouse test, crop damage rating; settings: 14 days after application, rating scale 0-100
In short: as §2

[7] = system: sicklepod (Cassia obtusifolia, CASOB); test: Post-emerge greenhouse herbicide test, phytotoxicity rating; settings: 14 days after application; for phytotoxicity rating CASOB: scale 0-100
In short: as §1

[8] = system: barnyardgrass (Echinochloa crusgalli, ECHCG); test: as above; settings: 14 days after application; for phytotoxicity rating ECHCG: scale 0-100
In short: as §1

[9] = system: lambsquarters (Chenopodium album, CHEAL); test: as above; settings: 14 days after application; for phytotoxicity rating CHEAL: scale 0-100
In short: as §1

[10] = system: large crabgrass (Digitaria sanguinalis, DIGSA); test: as above; settings: 14 days after application; for phytotoxicity rating DIGSA: scale 0-100
In short: as §1

[11] = system: Johnsongrass (Sorghum halepense, SORHA); test: as above; settings: 14 days after application; for phytotoxicity rating SORHA: scale 0-100
In short: as §1

[12] = system: green foxtail (Setaria viridis, SETVI); test: as above; settings: 14 days after application; for phytotoxicity rating SETVI: scale 0-100
In short: as §1

[13] = system: ivyleaf morningglory (Ipomoea hederacea, IPOHE); test: as above; settings: 14 days after application; for phytotoxicity rating IPOHE: scale 0-100
In short: as §1

[14] = system: redroot pigweed (Amaranthus retroflexus, AMARE); test: as above; settings: 14 days after application; for phytotoxicity rating AMARE: scale 0-100
In short: as §1

[15] = system: velvetleaf (Abutilon theophrasti, ABUTH); test: as above; settings: 14 days after application; for phytotoxicity rating ABUTH: scale 0-100
In short: as §1

[16] = system: soybean (Glycine max L., var. Pella 86, SOY); test: Pre-emerge greenhouse test, crop damage rating; set-up: key to SOY crop damage rating: 0 = no damage, 100 = complete death of all plants; settings: 14 days after application, rating scale 0-100
In short: as §2

[17] = system: sicklepod (Cassia obtusifolia, CASOB); test: Pre-emerge greenhouse herbicide test, phytotoxicity rating; settings: 14 days after application, rating scale 0-100
In short: as §2

[18] = system: common ragweed (Ambrosia artemisiifolia L., AMBEL); test: as above; settings: 14 days after application, rating scale 0-100
In short: as §2

[19] = system: barnyardgrass (Echinochloa crusgalli, ECHCG); test: as above; settings: 14 days after application, rating scale 0-100
In short: as §2

[20] = system: lambsquarters (Chenopodium album, CHEAL); test: as above; settings: 14 days after application, rating scale 0-100
In short: as §2

[21] = system: large crabgrass (Digitaria sanguinalis, DIGSA); test: as above; settings: 14 days after application, rating scale 0-100
In short: as §2

[22] = system: Johnsongrass (Sorghum halepense, SORHA); test: as above; settings: 14 days after application, rating scale 0-100
In short: as §2

[23] = system: green foxtail (Setaria viridis, SETVI); test: as above; settings: 14 days after application, rating scale 0-100
In short: as §2

[24] = system: ivyleaf morningglory (Ipomoea hederacea, IPOHE); test: as above; settings: 14 days after application, rating scale 0-100
In short: as §2

[25] = system: redroot pigweed (Amaranthus retroflexus, AMARE); test: as above; settings: 14 days after application, rating scale 0-100
In short: as §2

[26] = system: velvetleaf (Abutilon theophrasti, ABUTH); test: as above; settings: 14 days after application, rating scale 0-100
In short: as §2

## CC(C)S(=O)(=O)c1cccnc1Oc1cc(-n2c(=O)n3n(c2=S)CCCC3)c(F)cc1Cl [Compound 8-37]
[1]; rate 63 g ai/ha
  crop damage rating RICE: 0
[1]; rate 500 g ai/ha
  crop damage rating RICE: 35
[2]; rate 63 g ai/ha
  crop damage rating CORN: 0
[2]; rate 500 g ai/ha
  crop damage rating CORN: 40
[3]; rate 63 g ai/ha
  phytotoxicity rating AMBEL: 30
[3]; rate 500 g ai/ha
  phytotoxicity rating AMBEL: 60
[4]; rate 63 g ai/ha
  crop damage rating SOY: 90
[4]; rate 500 g ai/ha
  crop damage rating SOY: 100
[5]; Rate 125 g al/ha
  RICE crop damage rating: 10
[5]; Rate 500 g al/ha
  RICE crop damage rating: 80
[6]; Rate 125 g al/ha
  CORN crop damage rating: 0
[6]; Rate 500 g al/ha
  CORN crop damage rating: 25
[7]; rate 63 g ai/ha
  phytotoxicity rating CASOB: 100
[7]; rate 500 g ai/ha
  phytotoxicity rating CASOB: 95
[8]; rate 63 g ai/ha
  phytotoxicity rating ECHCG: 0
[8]; rate 500 g ai/ha
  phytotoxicity rating ECHCG: 10
[9]; rate 63 g ai/ha
  phytotoxicity rating CHEAL: 90
[9]; rate 500 g ai/ha
  phytotoxicity rating CHEAL: 90
[10]; rate 63 g ai/ha
  phytotoxicity rating DIGSA: 0
[10]; rate 500 g ai/ha
  phytotoxicity rating DIGSA: 0
[11]; rate 63 g ai/ha
  phytotoxicity rating SORHA: 0
[11]; rate 500 g ai/ha
  phytotoxicity rating SORHA: 50
[12]; rate 63 g ai/ha
  phytotoxicity rating SETVI: 0
[12]; rate 500 g ai/ha
  phytotoxicity rating SETVI: 30
[13]; rate 63 g ai/ha
  phytotoxicity rating IPOHE: 95
[13]; rate 500 g ai/ha
  phytotoxicity rating IPOHE: 80
[14]; rate 63 g ai/ha
  phytotoxicity rating AMARE: 90
[14]; rate 500 g ai/ha
  phytotoxicity rating AMARE: 95
[15]; rate 63 g ai/ha
  phytotoxicity rating ABUTH: 100
[15]; rate 500 g ai/ha
  phytotoxicity rating ABUTH: 100
[16]; Rate 125 g al/ha
  SOY crop damage rating: 50
[16]; Rate 500 g al/ha
  SOY crop damage rating: 80
[17]; Rate 125 g al/ha
  CASOB phytotoxicity rating: 0
[17]; Rate 500 g al/ha
  CASOB phytotoxicity rating: 80
[18]; Rate 125 g al/ha
  AMBEL phytotoxicity rating: 100
[18]; Rate 500 g al/ha
  AMBEL phytotoxicity rating: 100
[19]; Rate 125 g al/ha
  ECHCG phytotoxicity rating: 30
[19]; Rate 500 g al/ha
  ECHCG phytotoxicity rating: 100
[20]; Rate 125 g al/ha
  CHEAL phytotoxicity rating: 100
[20]; Rate 500 g al/ha
  CHEAL phytotoxicity rating: 100
[21]; Rate 125 g al/ha
  DIGSA phytotoxicity rating: 80
[21]; Rate 500 g al/ha
  DIGSA phytotoxicity rating: 100
[22]; Rate 125 g al/ha
  SORHA phytotoxicity rating: 20
[22]; Rate 500 g al/ha
  SORHA phytotoxicity rating: 80
[23]; Rate 125 g al/ha
  SETVI phytotoxicity rating: 100
[23]; Rate 500 g al/ha
  SETVI phytotoxicity rating: 100
[24]; Rate 125 g al/ha
  IPOHE phytotoxicity rating: 30
[24]; Rate 500 g al/ha
  IPOHE phytotoxicity rating: 85
[25]; Rate 125 g al/ha
  AMARE phytotoxicity rating: 100
[25]; Rate 500 g al/ha
  AMARE phytotoxicity rating: 100
[26]; Rate 125 g al/ha
  ABUTH phytotoxicity rating: 100
[26]; Rate 500 g al/ha
  ABUTH phytotoxicity rating: 100

## N#Cc1cccnc1Oc1cc(-n2nnn(CCCF)c2=O)c(F)cc1Cl [Compound 6-4]
[1]; 63 g al/ha
  RICE crop damage rating (0-100): 20
[1]; 500 g al/ha
  RICE crop damage rating (0-100): 35
[2]; 63 g al/ha
  CORN crop damage rating (0-100): 10
[2]; 500 g al/ha
  CORN crop damage rating (0-100): 20
[3]; 63 g al/ha
  AMBEL phytotoxicity rating (0-100): 20
[3]; 500 g al/ha
  AMBEL phytotoxicity rating (0-100): 20
[4]; 63 g al/ha
  SOY crop damage rating (0-100): 20
[4]; 500 g al/ha
  SOY crop damage rating (0-100): 60
[5]; 125 g ai/ha
  crop damage rating RICE: 15
[5]; 500 g ai/ha
  crop damage rating RICE: 35
[6]; 125 g ai/ha
  crop damage rating CORN: 0
[6]; 500 g ai/ha
  crop damage rating CORN: 10
[7]; 63 g al/ha
  CASOB phytotoxicity rating (0-100): 15
[7]; 500 g al/ha
  CASOB phytotoxicity rating (0-100): 50
[8]; 63 g al/ha
  ECHCG phytotoxicity rating (0-100): 0
[8]; 500 g al/ha
  ECHCG phytotoxicity rating (0-100): 60
[9]; 63 g al/ha
  CHEAL phytotoxicity rating (0-100): 85
[9]; 500 g al/ha
  CHEAL phytotoxicity rating (0-100): 100
[10]; 63 g al/ha
  DIGSA phytotoxicity rating (0-100): 0
[10]; 500 g al/ha
  DIGSA phytotoxicity rating (0-100): 0
[11]; 63 g al/ha
  SORHA phytotoxicity rating (0-100): 0
[11]; 500 g al/ha
  SORHA phytotoxicity rating (0-100): 80
[12]; 63 g al/ha
  SETVI phytotoxicity rating (0-100): 20
[12]; 500 g al/ha
  SETVI phytotoxicity rating (0-100): 40
[13]; 63 g al/ha
  IPOHE phytotoxicity rating (0-100): 65
[13]; 500 g al/ha
  IPOHE phytotoxicity rating (0-100): 85
[14]; 63 g al/ha
  AMARE phytotoxicity rating (0-100): 75
[14]; 500 g al/ha
  AMARE phytotoxicity rating (0-100): 99
[15]; 63 g al/ha
  ABUTH phytotoxicity rating (0-100): 90
[15]; 500 g al/ha
  ABUTH phytotoxicity rating (0-100): 100
[16]; 125 g ai/ha
  crop damage rating SOY: 0
[16]; 500 g ai/ha
  crop damage rating SOY: 20
[17]; 125 g ai/ha
  phytotoxicity rating CASOB: 50
[17]; 500 g ai/ha
  phytotoxicity rating CASOB: 30
[18]; 125 g ai/ha
  phytotoxicity rating AMBEL: 0
[18]; 500 g ai/ha
  phytotoxicity rating AMBEL: 40
[19]; 125 g ai/ha
  phytotoxicity rating ECHCG: 0
[19]; 500 g ai/ha
  phytotoxicity rating ECHCG: 95
[20]; 125 g ai/ha
  phytotoxicity rating CHEAL: 100
[20]; 500 g ai/ha
  phytotoxicity rating CHEAL: 100
[21]; 125 g ai/ha
  phytotoxicity rating DIGSA: 70
[21]; 500 g ai/ha
  phytotoxicity rating DIGSA: 100
[22]; 125 g ai/ha
  phytotoxicity rating SORHA: 20
[22]; 500 g ai/ha
  phytotoxicity rating SORHA: 100
[23]; 125 g ai/ha
  phytotoxicity rating SETVI: 100
[23]; 500 g ai/ha
  phytotoxicity rating SETVI: 100
[24]; 125 g ai/ha
  phytotoxicity rating IPOHE: 40
[24]; 500 g ai/ha
  phytotoxicity rating IPOHE: 100
[25]; 125 g ai/ha
  phytotoxicity rating AMARE: 100
[25]; 500 g ai/ha
  phytotoxicity rating AMARE: 100
[26]; 125 g ai/ha
  phytotoxicity rating ABUTH: 100
[26]; 500 g ai/ha
  phytotoxicity rating ABUTH: 100
